Measured values from US20230278972A1, “SUBSTITUTED HALOALKYL SULFONANILIDE HERBICIDES” (FMC Corporation, priority 2020, published 2023).

What was measured:
Format in all cases: in vivo
[1] = system: barnyardgrass (Echinochloa crus-galli); test: Test A preemergence, barnyardgrass; conditions: Preemergence; for Barnyardgrass plant response rating: 125 g ai/ha, visual injury on 0 to 100 scale (0 no effect, 100 complete control), approximately 10 days; for Plant response rating, Barnyardgrass: 500 g ai/ha, 0 to 100 scale (0 no effect, 100 complete control)
Procedure, shortened: (§1)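 Seeds are sown in loam mixed with sand and sprayed on the soil surface right after planting for the preemergence test. Postemergence pots are sprayed once seedlings reach 2 to 10 cm at the one- to two-leaf stage. The same surfactant-containing, non-phytotoxic solvent formulation serves both.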

kochia (Bassia scoparia) [2] = test: Test A preemergence, kochia; conditions: Preemergence; for Kochia plant response rating: 125 g ai/ha, visual injury on 0 to 100 scale (0 no effect, 100 complete control), approximately 10 days; for Plant response rating, Kochia: 500 g ai/ha, 0 to 100 scale (0 no effect, 100 complete control)
Procedure, shortened: as §1

[3] = system: ragweed (common ragweed, Ambrosia artemisiifolia); test: Test A preemergence, ragweed; conditions: Preemergence; for Ragweed plant response rating: 125 g ai/ha, visual injury on 0 to 100 scale (0 no effect, 100 complete control), approximately 10 days; for Plant response rating, Ragweed: 500 g ai/ha, 0 to 100 scale (0 no effect, 100 complete control)
Procedure, shortened: as §1

[4] = system: Ryegrass, Italian (Italian ryegrass, Lolium multiflorum); test: Test A preemergence, Ryegrass, Italian; conditions: Preemergence; for Ryegrass, Italian plant response rating: 125 g ai/ha, visual injury on 0 to 100 scale (0 no effect, 100 complete control), approximately 10 days; for Plant response rating, Ryegrass, Italian: 500 g ai/ha, 0 to 100 scale (0 no effect, 100 complete control)
Procedure, shortened: as §1

[5] = system: Foxtail, Giant (giant foxtail, Setaria faberi); test: Test A preemergence, Foxtail, Giant; conditions: Preemergence; for Foxtail, Giant plant response rating: 125 g ai/ha, visual injury on 0 to 100 scale (0 no effect, 100 complete control), approximately 10 days; for Plant response rating, Foxtail, Giant: 500 g ai/ha, 0 to 100 scale (0 no effect, 100 complete control)
Procedure, shortened: as §1

[6] = system: pigweed (Amaranthus retroflexus); test: Test A preemergence, pigweed; conditions: for Pigweed plant response rating: 125 g ai/ha, visual injury on 0 to 100 scale (0 no effect, 100 complete control), approximately 10 days; for Plant response rating, Pigweed: 500 g ai/ha, 0 to 100 scale (0 no effect, 100 complete control)
Procedure, shortened: (§2)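 Formulated with a surfactant in a non-phytotoxic solvent, compounds are applied to loam–sand pots, either to bare soil immediately after seeding (preemergence) or to seedlings of 2 to 10 cm bearing one to two leaves (postemergence).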

[7] = system: barnyardgrass (Echinochloa crus-galli); test: Test A postemergence, barnyardgrass; conditions: Postemergence, 0 to 100 scale (0 no effect, 100 complete control); for Plant response rating, Barnyardgrass: 125 g ai/ha, visual injury approx. 10 days; for Barnyardgrass plant response rating: 500 g ai/ha, visual injury vs untreated controls after approx. 10 days
Procedure, shortened: as §2

kochia (Bassia scoparia) [8] = test: Test A postemergence, kochia; conditions: Postemergence, 0 to 100 scale (0 no effect, 100 complete control); for Plant response rating, Kochia: 125 g ai/ha, visual injury approx. 10 days; for Kochia plant response rating: 500 g ai/ha, visual injury vs untreated controls after approx. 10 days
Procedure, shortened: as §1

[9] = system: ragweed (common ragweed, Ambrosia artemisiifolia); test: Test A postemergence, ragweed; conditions: Postemergence, 0 to 100 scale (0 no effect, 100 complete control); for Plant response rating, Ragweed: 125 g ai/ha, visual injury approx. 10 days; for Ragweed plant response rating: 500 g ai/ha, visual injury vs untreated controls after approx. 10 days
Procedure, shortened: as §1

[10] = system: Ryegrass, Italian (Italian ryegrass, Lolium multiflorum); test: Test A postemergence, Ryegrass, Italian; conditions: Postemergence, 0 to 100 scale (0 no effect, 100 complete control); for Plant response rating, Ryegrass, Italian: 125 g ai/ha, visual injury approx. 10 days; for Ryegrass, Italian plant response rating: 500 g ai/ha, visual injury vs untreated controls after approx. 10 days
Procedure, shortened: as §1

[11] = system: Foxtail, Giant (giant foxtail, Setaria faberi); test: Test A postemergence, Foxtail, Giant; conditions: Postemergence, 0 to 100 scale (0 no effect, 100 complete control); for Plant response rating, Foxtail, Giant: 125 g ai/ha, visual injury approx. 10 days; for Foxtail, Giant plant response rating: 500 g ai/ha, visual injury vs untreated controls after approx. 10 days
Procedure, shortened: as §1

[12] = system: pigweed (Amaranthus retroflexus); test: Test A postemergence, pigweed; conditions: Postemergence, 0 to 100 scale (0 no effect, 100 complete control); for Plant response rating, Pigweed: 125 g ai/ha, visual injury approx. 10 days; for Pigweed plant response rating: 500 g ai/ha, visual injury vs untreated controls after approx. 10 days
Procedure, shortened: as §1

[13] = system: wheat (Triticum aestivum); test: Test A postemergence, wheat; conditions: Postemergence, 0 to 100 scale (0 no effect, 100 complete control); for Plant response rating, Wheat: 125 g ai/ha, visual injury approx. 10 days; for Wheat plant response rating: 500 g ai/ha, visual injury vs untreated controls after approx. 10 days
Procedure, shortened: as §2

corn (Zea mays) = test: Test A postemergence, corn; conditions: Postemergence, 0 to 100 scale (0 no effect, 100 complete control); for Plant response rating, Corn: 125 g ai/ha, visual injury approx. 10 days; for Corn plant response rating: 500 g ai/ha, visual injury vs untreated controls after approx. 10 days
Procedure, shortened: as §1

[14] = system: blackgrass (Alopecurus myosuroides); test: Test A postemergence, blackgrass; conditions: Postemergence, 0 to 100 scale (0 no effect, 100 complete control); for Plant response rating, Blackgrass: 125 g ai/ha, visual injury approx. 10 days; for Blackgrass plant response rating: 500 g ai/ha, visual injury vs untreated controls after approx. 10 days
Procedure, shortened: as §1

[15] = system: galium (catchweed bedstraw, Galium aparine); test: Test A postemergence, galium; conditions: Postemergence, 0 to 100 scale (0 no effect, 100 complete control); for Plant response rating, Galium: 125 g ai/ha, visual injury approx. 10 days; for Galium plant response rating: 500 g ai/ha, visual injury vs untreated controls after approx. 10 days
Procedure, shortened: as §2

Row | SMILES | Barnyardgrass plant response rating [1] | Plant response rating, Barnyardgrass [1] | Kochia plant response rating (kochia (Bassia scoparia) [2]) | Plant response rating, Kochia (kochia (Bassia scoparia) [2]) | Ragweed plant response rating [3] | Plant response rating, Ragweed [3] | Ryegrass, Italian plant response rating [4] | Plant response rating, Ryegrass, Italian [4] | Foxtail, Giant plant response rating [5] | Plant response rating, Foxtail, Giant [5] | Pigweed plant response rating [6] | Plant response rating, Pigweed [6] | Plant response rating, Barnyardgrass [7] | Barnyardgrass plant response rating [7] | Plant response rating, Kochia (kochia (Bassia scoparia) [8]) | Kochia plant response rating (kochia (Bassia scoparia) [8]) | Plant response rating, Ragweed [9] | Ragweed plant response rating [9] | Plant response rating, Ryegrass, Italian [10] | Ryegrass, Italian plant response rating [10] | other results
1 | Cc1cc(C)c(-c2ccnn(C)c2=O)cc1NS(=O)(=O)C(F)(F)F [Compound 80] | 90 | 90 | 80 | 80 | 70 | 90 | 90 | 90 | 90 | 100 | 60 | 90 | 70 | 90 | 40 | 70 | 90 | 90 | 70 | 80 | Plant response rating, Foxtail, Giant [11]: 90; Foxtail, Giant plant response rating [11]: 90; Plant response rating, Pigweed [12]: 70; Pigweed plant response rating [12]: 70; Plant response rating, Wheat [13]: 60; Wheat plant response rating [13]: 80; Plant response rating, Corn (corn (Zea mays)): 20; Corn plant response rating (corn (Zea mays)): 80; Plant response rating, Blackgrass [14]: 60; Blackgrass plant response rating [14]: 100; Plant response rating, Galium [15]: 90; Galium plant response rating [15]: 90
2 | Cc1c(NS(=O)(=O)C(F)(F)F)cc(C(=O)N2CCC3(CC2)OCCCO3)c(C)c1F [Compound 129] | 100 | 90 | 80 | 90 | 70 | 90 | 80 | 100 | 100 | 100 | 100 | 100 | 20 | 80 | 30 | 50 | 60 | 90 | 0 | 70 | Plant response rating, Foxtail, Giant [11]: 0; Foxtail, Giant plant response rating [11]: 30; Plant response rating, Pigweed [12]: 30; Pigweed plant response rating [12]: 90; Plant response rating, Wheat [13]: 30; Wheat plant response rating [13]: 60; Plant response rating, Corn (corn (Zea mays)): 10; Corn plant response rating (corn (Zea mays)): 20; Plant response rating, Blackgrass [14]: 20; Blackgrass plant response rating [14]: 30; Plant response rating, Galium [15]: 60; Galium plant response rating [15]: 80
3 | COc1cc(-c2cc(NS(=O)(=O)C(F)(F)F)c(C)cc2C)c(=O)n(C)n1 [Compound 70] | 90 | 100 | 0 | 0 | 10 | 70 | 50 | 60 | 10 | 90 | 80 | 80 | 0 | 50 | 0 | 0 | 0 | 0 | 0 | 0 | Plant response rating, Foxtail, Giant [11]: 0; Foxtail, Giant plant response rating [11]: 20; Plant response rating, Pigweed [12]: 0; Pigweed plant response rating [12]: 20; Plant response rating, Wheat [13]: 0; Wheat plant response rating [13]: 30; Plant response rating, Corn (corn (Zea mays)): 0; Corn plant response rating (corn (Zea mays)): 0; Plant response rating, Blackgrass [14]: 30; Blackgrass plant response rating [14]: 30; Plant response rating, Galium [15]: 60; Galium plant response rating [15]: 80
4 | Cc1cc(C)c(N(S(=O)(=O)C(F)(F)F)S(=O)(=O)C(F)(F)F)cc1-c1cc(C(C)C)nn(C)c1=O [Compound 47] | 50 | 90 | 0 | 0 | 20 | 60 | 50 | 100 | 10 | 90 | 0 | 0 | 50 | 80 | 0 | 0 | 70 | 80 | 40 | 80 | Plant response rating, Foxtail, Giant [11]: 40; Foxtail, Giant plant response rating [11]: 80; Plant response rating, Pigweed [12]: 0; Pigweed plant response rating [12]: 0; Plant response rating, Wheat [13]: 50; Wheat plant response rating [13]: 60; Plant response rating, Corn (corn (Zea mays)): 10; Corn plant response rating (corn (Zea mays)): 0; Plant response rating, Blackgrass [14]: 10; Blackgrass plant response rating [14]: 50; Plant response rating, Galium [15]: 30; Galium plant response rating [15]: 40
